# According to article PMC9865890, “N-Derivatives of (Z)-Methyl 3-(4-Oxo-2-thioxothiazolidin-5-ylidene)methyl)-1H-indole-2-carboxylates as Antimicrobial Agents—In Silico and In Vitro Evaluation” (Pharmaceuticals, 2023):
# Like-named read-outs stand apart in the source and are kept apart here.
# Assays:
# A. ochraceus = assay: Antifungal bioassay (MIC/MFC); type: cell-based; settings: A.o. (A. ochraceus)
# Description: (§1) For the antifungal bioassays, six fungi were used: […] The organisms were obtained from the Mycological Laboratory, Department of Plant Physiology, Institute for Biological Research “Siniša Stankovic”, Belgrade, Serbia. All experiments were performed in duplicate.
# [1] = tested on: Aspergillus fumigatus (ATCC 1022); assay: Antifungal bioassay (MIC/MFC); type: cell-based; settings: ATCC1022, A.f. (A. fumigatus)
# Description: as §1
# [2] = tested on: Penicillium funiculosum (ATCC 36839); assay: Antifungal bioassay (MIC/MFC); type: cell-based; settings: Talaromyces funiculosus, ATCC36839; P.f. (P. funiculosum)
# Description: as §1
# [3] = tested on: Trichoderma viride (IAM 5061); assay: Antifungal bioassay (MIC/MFC); type: cell-based; settings: T.v. (T. viride)
# Description: as §1
# [4] = tested on: Aspergillus versicolor (ATCC 11730); assay: Antifungal bioassay (MIC/MFC); type: cell-based; settings: ATCC11730, A.v. (A. versicolor)
# Description: as §1
# P. ochrochloron = assay: Antifungal bioassay (MIC/MFC); type: cell-based; settings: for MIC: P.o. (P. ochrochloron; text: P. ochramensis); for MFC: P.o. (P. ochrochloron)
# Description: as §1
# [5] = tested on: Aspergillus niger (ATCC 6275); assay: Antifungal bioassay (MIC/MFC); type: cell-based; settings: ATCC6275, A.n. (A. niger)
# Description: as §1
# [6] = tested on: Salmonella typhimurium (ATCC 13311); assay: Antibacterial microdilution (MIC/MBC); type: cell-based; settings: S.t. (S. typhimurium)
# Description: (§2) The synthesized compounds (Table 1) were evaluated for their antibacterial activity against a panel of eight species using a microdilution method with ampicillin and streptomycin as reference drugs. […] The order of activity can be presented as: 8 > 11 > 2 > 1 > 12 > 3 > 17 > 7 > 5 > 13 > 14 > 16 > 9 > 4 = 6 > 15 > 10. […] Cloacae. […] The most sensitive bacteria appeared to be En. cloacae, while E. coli was the most resistant one, followed by M. flavus.
# (§3) The following Gram-negative bacteria: Escherichia coli (ATCC 35210), Enterobacter cloacae (clinical isolate), Salmonella typhimurium (ATCC 13311), as well as Gram-positive bacteria: Listeria monocytogenes (NCTC 7973), Bacillus cereus (clinical isolate), and Staphylococcus aureus (ATCC 6538) were used. The organisms were obtained from the Mycological Laboratory, Department of Plant Physiology, Institute for Biological Research “Siniša Stankovic”, Belgrade, Serbia. The minimum inhibitory (MIC) and minimum bactericidal (MBC) concentrations were determined by the modified microdilution method, as previously reported.
# [7] = tested on: Staphylococcus aureus (ATCC 6538); assay: Antibacterial microdilution (MIC/MBC); type: cell-based; settings: S.a. (S. aureus)
# Description: as §2, §3
# [8] = tested on: Escherichia coli (ATCC 35210); assay: Antibacterial microdilution (MIC/MBC); type: cell-based; settings: E. coli
# Description: as §2, §3
# [9] = tested on: Bacillus cereus (clinical isolate); assay: Antibacterial microdilution (MIC/MBC); type: cell-based; settings: B.c. (B. cereus)
# Description: as §2, §3
# [10] = tested on: Enterobacter cloacae (clinical isolate); assay: Antibacterial microdilution (MIC/MBC); type: cell-based; settings: Enterobacter cloacae, En.cl (En. cloacae); for MIC: read-out: MIC
# Description: as §2, §3
# P. aeruginosa = assay: Antibacterial microdilution (MIC/MBC); type: cell-based; settings: Pseudomonas aeruginosa, P.a. (P. aeruginosa); for MIC: read-out: MIC
# Description: as §2, §3
# M. flavus = assay: Antibacterial microdilution (MIC/MBC); type: cell-based; settings: Micrococcus flavus; M.f. (M. flavus)
# Description: as §2, §3
# [11] = tested on: Listeria monocytogenes (NCTC 7973); assay: Antibacterial microdilution (MIC/MBC); type: cell-based; settings: Listeria monocytogenes, NCTC7973, L.m. (L. monocytogenes); for MIC: read-out: MIC
# Description: as §2, §3
# [12] = tested on: Penicillium verrucosum var. cyclopium (food isolate); assay: Antifungal bioassay (MIC/MFC); type: cell-based
# Description: For the antifungal bioassays, six fungi were used: Aspergillus niger (ATCC 6275), Aspergillus fumigatus (ATCC 1022), Aspergillus versicolor (ATCC 11730), Penicillium funiculosum (ATCC 36839), Trichoderma viride (IAM 5061), and Penicillium verrucosum var. cyclopium (food isolate). The organisms were obtained from the Mycological Laboratory, Department of Plant Physiology, Institute for Biological Research “Siniša Stankovic”, Belgrade, Serbia. All experiments were performed in duplicate.
# [13] = Aspergillus ochraceus, read-out: MIC
# [14] = Trichoderma viride, IAM5061, read-out: MIC
# [15] = Penicillium ochrochloron, read-out: MIC
# [16] = Salmonella enterica, read-out: MIC
# [17] = Staphylococcus aureus, ATCC6538
# [18] = Staphylococcus aureus, ATCC6538, read-out: MIC
# [19] = Escherichia coli, ATCC35210, read-out: MIC
Structure (SMILES),MFC (A. ochraceus; Aspergillus ochraceus) [µg/mL],MFC [1] [µg/mL],MIC [1] [µg/mL],MFC [2] [µg/mL],MIC [2] [µg/mL],MFC [4] [µg/mL],MIC [4] [µg/mL],MFC (P. ochrochloron; Penicillium ochrochloron) [µg/mL],MIC (P. ochrochloron; [15]) [µg/mL],MBC ([6]; Salmonella enterica) [µg/mL],"MIC [6, 16] [µg/mL]","MBC [7, 17] [µg/mL]","MIC [7, 18] [µg/mL]","MBC ([8]; Escherichia coli, ATCC35210) [µg/mL]","MIC [8, 19] [µg/mL]",MBC ([9]; Bacillus cereus) [µg/mL],"MIC ([9]; Bacillus cereus, read-out: MIC) [µg/mL]",MBC [10] [µg/mL],MIC [10] [µg/mL],MBC (P. aeruginosa) [µg/mL],further results
"COC(=O)c1[nH]c2ccccc2c1/C=C1\SC(=S)N(CCCCCC(=O)O)C1=O [Compound 1, (Z)-6-(5-((2-(methoxycarbonyl)-1H-indol-3-yl)methylene)-4-oxo-2-thioxothiazolidin-3-yl)hexanoic acid]",15 ± 3,120 ± 40,60 ± 6,30 ± 10,15 ± 3,60 ± 6,30 ± 10,8 ± 0.6,4,30 ± 10,15,30 ± 10,22 ± 5,30 ± 10,15,30 ± 10,15,30 ± 10,22 ± 5,60 ± 6,"MIC (A. ochraceus): 8 ± 0.6 µg/mL; MIC (A. ochraceus; [13]): 8 µg/mL; MFC ([3]; Trichoderma viride, IAM5061): 30 ± 10 µg/mL; MIC [3, 14]: 15 ± 3 µg/mL; MIC (P. ochrochloron): 4 ± 1 µg/mL; MFC [5]: 30 ± 10 µg/mL; MIC [5]: 22 ± 5 µg/mL; MIC [6]: 15 ± 9 µg/mL; MIC [8]: 15 ± 9 µg/mL; MIC [9]: 15 ± 9 µg/mL; MIC (P. aeruginosa): 22 ± 5 µg/mL; MBC (M. flavus): 30 ± 10 µg/mL; MIC (M. flavus): 22 ± 5 µg/mL; MBC [11]: 60 ± 6 µg/mL; MIC [11]: 22 ± 4 µg/mL; MFC [12]: 60 ± 6 µg/mL; MIC [12]: 30 ± 10 µg/mL; melting point: 135 to 138 °C"
"COC(=O)c1[nH]c2ccccc2c1/C=C1\SC(=S)N(c2ccc(C(=O)O)cc2)C1=O [Compound 2, (Z)-4-(5-((2-(methoxycarbonyl)-1H-indol-3-yl)methylene)-4-oxo-2-thioxothiazolidin-3-yl)benzoic acid]",15 ± 3,60 ± 6,30 ± 10,30 ± 10,15 ± 3,30 ± 10,15 ± 3,30 ± 10,15 ± 3,30 ± 10,22 ± 5,30 ± 10,15,30 ± 10,22 ± 5,30 ± 10,15,30 ± 10,15 ± 9,60 ± 6,"MFC ([3]; Trichoderma viride, IAM5061): 15 ± 3 µg/mL; MIC [3, 14]: 8 ± 0.6 µg/mL; MFC [5]: 30 ± 10 µg/mL; MIC [5]: 22 ± 5 µg/mL; MIC [7]: 15 ± 9 µg/mL; MIC [9]: 15 ± 9 µg/mL; MIC (P. aeruginosa): 30 ± 10 µg/mL; MBC (M. flavus): 30 ± 10 µg/mL; MIC (M. flavus): 22 ± 5 µg/mL; MBC [11]: 60 ± 6 µg/mL; MIC [11]: 30 ± 10 µg/mL; MFC [12]: 60 ± 6 µg/mL; MIC [12]: 30 ± 10 µg/mL; melting point: 294 to 295 °C"
"COC(=O)c1[nH]c2ccccc2c1/C=C1\SC(=S)N(N2CCOCC2)C1=O [Compound 6, (Z)-methyl 3-((3-morpholino-4-oxo-2-thioxothiazolidin-5-ylidene)methyl)-1H-indole-2-carboxylate]",15 ± 3,120 ± 40,60 ± 6,30 ± 10,15 ± 3,15 ± 3,8 ± 0.6,15 ± 3,8,60 ± 6,30 ± 10,30 ± 10,15,120 ± 10,60 ± 6,60 ± 6,30 ± 10,30 ± 10,15 ± 9,60 ± 6,"MIC (A. ochraceus; [13]): 8 ± 0.6 µg/mL; MIC [3]: 8 ± 0.6 µg/mL; MFC ([3]; Trichoderma viride, IAM5061): 15 ± 3 µg/mL; MIC [3, 14]: 8 µg/mL; MIC (P. ochrochloron): 8 ± 0.6 µg/mL; MIC [7]: 15 ± 9 µg/mL; MIC (P. aeruginosa): 30 ± 10 µg/mL; MBC (M. flavus): 60 ± 6 µg/mL; MIC (M. flavus): 45 ± 3 µg/mL; MBC [11]: 60 ± 6 µg/mL; MIC [11]: 30 ± 10 µg/mL; MFC [12]: 30 ± 10 µg/mL; MIC [12]: 15 ± 3 µg/mL; melting point: 278 to 280 °C"
"COC(=O)c1[nH]c2cc(OC)ccc2c1/C=C1\SC(=S)N(c2cccc(F)c2)C1=O [Compound 13, (Z)-methyl 3-((3-(3-fluorophenyl)-4-oxo-2-thioxothiazolidin-5-ylidene)methyl)-6-methoxy-1H-indole-2-carboxylate]",15 ± 3,120 ± 40,60 ± 6,30 ± 10,15 ± 3,30 ± 10,15 ± 3,30 ± 10,15 ± 3,60 ± 6,30 ± 10,30 ± 10,15 ± 9,60 ± 6,45 ± 3,60 ± 6,30 ± 10,30 ± 10,15 ± 9,60 ± 6,MIC (A. ochraceus; [13]): 8 ± 0.6 µg/mL; MFC [5]: 30 ± 10 µg/mL; MIC [5]: 15 ± 3 µg/mL; MIC (P. aeruginosa): 30 ± 10 µg/mL; MBC (M. flavus): 60 ± 6 µg/mL; MIC (M. flavus): 45 ± 3 µg/mL; MBC [11]: 60 ± 6 µg/mL; MIC [11]: 30 ± 10 µg/mL; MFC [12]: 30 ± 10 µg/mL; MIC [12]: 15 ± 3 µg/mL; melting point: 238 to 240 °C
"COC(=O)c1[nH]c2ccc(F)cc2c1/C=C1\SC(=S)N(CCC(=O)O)C1=O [Compound 14, (Z)-3-(5-((5-fluoro-2-(methoxycarbonyl)-1H-indol-3-yl)methylene)-4-oxo-2-thioxothiazolidin-3-yl)propanoic acid]",30 ± 10,120 ± 40,60 ± 6,30 ± 10,15 ± 3,30 ± 10,15 ± 3,30 ± 10,15 ± 3,60 ± 6,45 ± 3,60 ± 6,30 ± 10,60 ± 6,45 ± 3,60 ± 6,30 ± 10,30 ± 10,15 ± 9,30 ± 10,MIC (A. ochraceus; [13]): 15 ± 3 µg/mL; MFC [5]: 30 ± 10 µg/mL; MIC [5]: 15 ± 3 µg/mL; MIC (P. aeruginosa): 15 ± 9 µg/mL; MBC (M. flavus): 60 ± 6 µg/mL; MIC (M. flavus): 45 ± 3 µg/mL; MBC [11]: 60 ± 6 µg/mL; MIC [11]: 45 ± 3 µg/mL; MFC [12]: 30 ± 10 µg/mL; MIC [12]: 15 ± 3 µg/mL; melting point: 275 to 276 °C
"COC(=O)c1[nH]c2ccccc2c1/C=C1\SC(=S)N(CCC(=O)O)C1=O [Compound 17, (Z)-3-(5-((2-(methoxycarbonyl)-1H-indol-3-yl)methylene)-4-oxo-2-thioxothiazolidin-3-yl)propanoic acid]",15 ± 3,120 ± 40,60 ± 6,30 ± 10,15 ± 3,30 ± 10,15 ± 3,30 ± 10,15 ± 3,60 ± 6,30 ± 10,15,8,60 ± 6,45 ± 3,60 ± 6,30 ± 10,15 ± 9,8 ± 0.6,15 ± 9,MIC (A. ochraceus; [13]): 8 ± 0.6 µg/mL; MFC [5]: 15 ± 3 µg/mL; MIC [5]: 22 ± 5 µg/mL; MIC [7]: 8 ± 0.6 µg/mL; MIC (P. aeruginosa): 8 µg/mL; MBC (M. flavus): 60 ± 6 µg/mL; MIC (M. flavus): 30 ± 10 µg/mL; MBC [11]: 60 ± 6 µg/mL; MIC [11]: 30 ± 10 µg/mL; MFC [12]: 60 ± 6 µg/mL; MIC [12]: 30 ± 10 µg/mL; melting point: 265 to 266 °C
